In patent publication US12409158B2, “Combination therapy for treating cancer” (GONGWIN BIOPHARM CO., LTD, priority 2022, dated 2025):

What was measured:
Assay type in all cases: in vivo, BALB/c nude mice
phosphorylated ERK = experiment: Western blot of phosphorylated ERK in M5 tumors; conditions: vs control group
Description: (§1) The mice were observed daily for clinical signs, weighed them every three days, and at one month after tumor-cell implantation euthanized them with an overdose of anesthetic combined with carbon dioxide. Immediately before sacrificing the mice, the blood was collected from them under anesthesia for hematological assessment. After euthanizing the mice, the tumors were excised immediately. The tumor specimens were divided into two groups. One group was treated with 10% formalin and embedded the specimens in paraffin. These specimens were investigated by hematoxylin and eosin staining; terminal deoxyribonucleotidyl transferase (TdT)-mediated biotin-16-dUTP nick-end labeling (TUNEL assay; APO-BrdU TUNEL Assay Kit, BD Pharmingen, San Diego, CA, USA); and IHC for IL-1β, TNF-α, TGF-β, and CD44, using primary antibodies against these factors (Merck, Billerica, MA, USA). Protein expression was assessed via IHC with the […] mouse/rabbit polymer detection system produced by BioTnA (Kaohsiung, Taiwan). A high-resolution digital microscope (Moticam 2300, Motic Instruments, Richmond, Canada) equipped with Motic Images Plus (version 2.0) was used to capture and analyze the images. […] Protein expression and phosphorylation were quantified with ImageJ (National Institutes of Health, Bethesda, […], USA).

TNF-α = experiment: IHC analysis of TNF-α in M5 tumors; conditions: relative to the control group
Description: (§2) The mice were observed daily for clinical signs, weighed them every three days, and at one month after tumor-cell implantation euthanized them with an overdose of anesthetic combined with carbon dioxide. Immediately before sacrificing the mice, the blood was collected from them under anesthesia for hematological assessment. After euthanizing the mice, the tumors were excised immediately. The tumor specimens were divided into two groups. One group was treated with 10% formalin and embedded the specimens in paraffin. These specimens were investigated by hematoxylin and eosin staining; terminal deoxyribonucleotidyl transferase (TdT)-mediated biotin-16-dUTP nick-end labeling (TUNEL assay; APO-BrdU TUNEL Assay Kit, BD Pharmingen, San Diego, CA, USA); and IHC for IL-1β, TNF-α, TGF-β, and CD44, using primary antibodies against these factors (Merck, Billerica, MA, USA). Protein expression was assessed via IHC with the […] mouse/rabbit polymer detection system produced by BioTnA (Kaohsiung, Taiwan). A high-resolution digital microscope (Moticam 2300, Motic Instruments, Richmond, Canada) equipped with Motic Images Plus (version 2.0) was used to capture and analyze the images. The other groups of tumor specimens were first minced coarsely and homogenized, and then stored in a freezer at -80° C.

M5 canine melanoma tumor = experiment: TUNEL/DAPI assay of apoptosis in excised M5 tumors; conditions: cisplatin 2 mg/kg, PTS 100 mg/kg IP three times per week
Description: as §2

cleaved caspase 3 = experiment: Western blot of cleaved caspase 3 in M5 tumors; conditions: vs control group
Description: as §1

TGF-β = experiment: IHC analysis of TGF-β in M5 tumors; conditions: relative to the control group
Description: as §2

IL-6 = experiment: ELISA of serum IL-6 in M5 tumor-bearing mice; conditions: relative to the control group
Description: The serum levels of IL-6 in the blood samples were measured using commercial mouse kits (ab213749 and ab100697; Abcam, Cambridge, MA, USA) according to the manufacturer's protocol. 50 μl of samples were added to each of the wells in 96-well antibody-coated plates and then incubated for 2 hours at room temperature. 50 μl of the detector antibody solution was loaded into each well and incubated the plates for a further 1 hour at room temperature. Next, […] of HRP-Streptavidin solution (ab210901, Abcam) was added to each well, and once again incubated the plates for 1 hour at room temperature. Finally, 100 μl of tetramethylbenzidine substrate was added to each well and incubated the plates for another 10 min in the dark, again at room temperature. The reaction was stopped by adding 100 μl of stop solution. The wavelength of absorbance was at 450 nm and results were expressed in pg/ml.

IL-1β = experiment: IHC analysis of IL-1β in M5 tumors; conditions: relative to the control group
Description: as §2

A549 cells = experiment: A549 lung adenocarcinoma xenograft
Description: A549 cell line was purchased from ATCC Cell Bank and was cultured in F-12K medium (cat no. ATCC 30-2004) plus 10% fetal bovine serum, at 37° C., 5% CO2. For experiments, cells were grown to 90% confluence. The experimental treatments were commenced after the implanted A549 cells had formed a detectable tumor mass, which was assessed on day 7 after implantation. Briefly, the mice were anesthetized via intraperitoneal injection of Zoletil (Virbac Taiwan, Taipei, Taiwan), and then subcutaneously injected 100 μl of cell suspension containing 6*10^6 viable A549 cells into right posterior leg. […] All treatments were administered via intraperitoneal injection (IP) or intratumoral injection (IT). The control group (Group 1) received normal saline daily, while the other three treatment groups received their corresponding treatments B.I.W (twice a week) or Q.W (once weekly). The PTS100 group (Group 2) received 330 mg/kg of PTS100 (Gongwin Biopharm Holding, Taipei, Taiwan). The normal saline+pemetrexed+Cisplatin group (Group 3) received 100 mg/kg of pemetrexed and 2 mg/kg of cisplatin. The pemetrexed+cisplatin+PTS100 (Group 4, also known as the “combination”) received 100 mg/kg of pemetrexed, 2 mg/kg of cisplatin, and 330 mg/kg of PTS 100. In group 4, when administering in combination, pemetrexed, cisplatin, PTS100 are given at different days, for example, PTS is given at Monday and Thursday, and pemetrexed+cisplatin is given at Wednesday. See Table 4 for the experimental design of the corresponding treatments, dose, injection site, concentration, volume, number of subjects and dosing frequency. The dosage of pemetrexed, cisplatin, and PTS100 were selected such that these drug affects apoptosis, invasion, metastasis, angiogenesis, and the growth signal mechanisms in […] implanted in mice. The growth of the tumors was assessed every seven days by measuring their largest and smallest diameters, and calculated their volume according to the following formula: […] [table]

Ki67 = experiment: IHC analysis of Ki67 in M5 tumors; conditions: FIGS. 9A and 9B

N.N.[Cl][Pt][Cl] [Cisplatin, cisplatin, reference compound]
phosphorylated ERK expression (phosphorylated ERK): significantly higher | TNF-α activity reduction (TNF-α): 77.4% | TUNEL-positive cell count as multiple of the control (M5 canine melanoma tumor): 3.9 times | cleaved caspase 3 expression (cleaved caspase 3): significantly higher | TGF-β expression reduction (TGF-β): about 26.6% | serum IL-6 expression reduction (IL-6): 62.8% | IL-1β activity reduction (IL-1β): 29.7%

Cc1ccc(S(N)(=O)=O)cc1 [PTS, p-Toluenesulfonamide]
phosphorylated ERK expression (phosphorylated ERK): significantly higher | TNF-α activity reduction (TNF-α): 73.0% | TUNEL-positive cell count as multiple of the control (M5 canine melanoma tumor): 3.5 times | Inhibition (%) (tumor growth inhibition) (A549 cells; PTS100 330 mg/kg IT B.I.W., pemetrexed 100 mg/kg and cisplatin 2 mg/kg IP QW): 84.13% | tumor volume / tumor burden (A549 cells; compared to control, FIG. 14A): slight decrease | tumor weight (A549 cells; compared to the control, FIG. 14B): significant decrease | cleaved caspase 3 expression (cleaved caspase 3): significantly higher | Ki67 expression (Ki67): suppressed | TGF-β expression reduction (TGF-β): ~23.3% | serum IL-6 expression reduction (IL-6): 57.5% | IL-1β activity reduction (IL-1β): 26.5%
